The values that follow come from patent US9670217B2, “Process for preparing chlorins and their pharmaceutical uses” (UNIVERSIDADE DE COIMBRA, priority 2008, dated 2017).

SMILES strings stand for the structures. “And” between values parts separate entries of the source, which are not always exact repeats. Identical values can stand only once.

Data set [1] can be described thus: Fluorescence quantum yield. As to conditions: ethanol. The data set is classed as physicochemical. As for the experimental part: The absorptions of both reference and sample solutions were matched at ca 0.2 at the excitation wavelength of 515.5 nm, and the solutions were diluted by a factor 10 before collecting the fluorescence. The fluorescence quantum yield was obtained from the ratio of the fluorescence bands of the sample vs the reference, multiplied by the fluorescence quantum yield of the reference, 0.012 according to [12], after correction for the difference of refractive indexes of ethanol and toluene.
This is indicative of little aggregation between the molecules, which exist mostly as monomers at these concentrations in the solvents studied. Table 1 presents typical red and infrared molar absorption coefficients (εmax) and wavelength maxima. The same table also presents representative fluorescence quantum yields (ΦF) of Luzitins. The fluorescence quantum yields decrease of these molecules decrease in the presence of chlorine substituents, a fingerprint of the heavy atom effect expected for such molecules.

Data set [2] in a line: n-octanol:water partition coefficient (shake-flask). The data set is classed as physicochemical. The method, then:
The n-octanol:water partition coefficients (CP) were measured using a minor modification of the shake-flask method described by some of us in the literature. The modification concerned the excitation of the absorption band ca 500 nm and the collection of the fluorescence in the red/IR region.

Data set [3] relates to PC-3 (human prostate carcinoma). The data set can be described thus: Cytotoxicity in the dark, resazurin assay. The data set is classed as cell-based. The method, then: The cell lines employed in laser irradiation were the HT-29 (human colon carcinoma), PC-3 (human prostate carcinoma), SW2 (human small cell lung cancer), A-549 (human non-small cell lung cancer). S91/I3 (mouse melanoma) and CT26 (mouse colon carcinoma). They were used both for cytotoxicity and photocytotoxicity experiments. PC-3. SW2 and S91113 cells were cultured in RPMI-1640 medium (Sigma-Aldrich, Steinheim, Germany) and HT-29, A-549 and CT26 cells were cultured in Dulbecco's Modified Eagle Medium (DMEM) (Cambrex Bioscience, Verviers, Belgium). Both cell culture mediums were supplemented with 10% heat-inactivated Fetal Bovine Serum (FBS) (Cambrex Bioscience, Verviers, Belgium) and 100 IU/ml penicillin-100 μg/ml streptomycin (Cambrex Bioscience, Verviers, Belgium). The DMEM medium used for CT26 cells was also supplemented with HEPES 10 mM. Cell lines were maintained in 75 cm^2 flasks (Orange Scientific, Braine-l'Alleud, Belgium) at 37° C. in humidified atmosphere with 5% CO2. For the in vitro studies, cells at 85-90% confluence, were detached with Trypsin-Versene-EDTA solution (Cambrex Bioscience, Verviers, Belgium), counted and seeded in flat-bottom 96-well plates at the desired densities.
Cell viability assay. In the end of the experiences cell viability was evaluated by the resazurin reduction assay. Briefly, resazurin (Sigma-Aldrich, Steinhelm, Germany) stock solution (0.1 mg/ml in phosphate buffer saline (PBS) pH 7.4) was diluted 10% in culture medium without FBS or antibiotics and 200 μl were added to the cells in each well. Plates were incubated for 3-4 h at 37° C. The absorbance values of each well were measured at 540 nm and 630 nm using a microplate reader Multiskan Ex (Thermo-Electron Corporation, Vartaa, Finland).
Cytotoxicity. Cells were seeded in flat-bottom 96-well plates (Orange Scientific, Braine-l'Alleud, Belgium) in 100 μl of culture medium and were allowed to adhere overnight. The photosensitizer was added to the cells (diluted in 100 μl culture medium) at final concentrations between 0.01 and 1 mM. Each concentration was tested in quadruplicate. The incubation periods in the dark at 37° C. were two times the doubling time for the tested cell line. After the incubation the cell viability was evaluated. In parallel control experiments, cells were incubated without the drug. Cytotoxicity was quantified by expressing cell death relatively to untreated cells (% of control cells). The results were plotted as dose response curves (% of cell death as a function of the concentration of the DRUG), which allow the determination of the concentration that inhibit 50% of cell growth (IC50).

The subject of data set [4] is HT-29 (human adenocarcinoma). The experiment in a line: Cell photosensitization, 748 nm diode laser, resazurin. The data set is classed as cell-based. The following applies: for concentration of sensitizer required to kill 90% of cells (LD90): 6 J/cm^2 diode laser irradiation at 28.5 mW. Background: Resazurin is reduced to fluorescent resorufin, in cell work by metabolically active cells.

In data set [5] the test system is A-549 (human non-small cell lung carcinoma). Described as above. The format is cell-based. As to conditions: 6 J/cm^2 diode laser irradiation at 28.5 mW.
For data set [6] the following is noted: minipig.

For `O=S(=O)(O)c1ccc(Cl)c(-c2c3nc(c(-c4c(Cl)ccc(S(=O)(=O)O)c4Cl)c4ccc([nH]4)c(-c4c(Cl)ccc(S(=O)(=O)O)c4Cl)c4nc(c(-c5c(Cl)ccc(S(=O)(=O)O)c5Cl)c5ccc2[nH]5)CC4)CC3)c1Cl` [Luzitin-Cl2, 5,10,15,20-tetrakis(2,6-dichloro-3-sulfonylphenyl)bacteriochlorin], the “ΦF (fluorescence quantum yield)” value in data set [1] is given as 0.0062. Moreover, the “log KOW (n-octanol:water partition coefficient)” value (from here on “log KOW”) in data set [2] was −1.75. Besides, the “highest concentration that causes relatively no effect in viability in the dark” value in data set [3] (PC-3, dark) is recorded as 0.05 mM. The “concentration of sensitizer required to kill 90% of cells (LD90)” value (shortened to “concentration … to kill 90% of cells (LD90)”) in data set [4] was found to be 50 µM.
Consider `CCNS(=O)(=O)c1ccc(Cl)c(-c2c3nc(c(-c4c(Cl)ccc(S(=O)(=O)NCC)c4Cl)c4ccc([nH]4)c(-c4c(Cl)ccc(S(=O)(=O)NCC)c4Cl)c4nc(c(-c5c(Cl)ccc(S(=O)(=O)NCC)c5Cl)c5ccc2[nH]5)CC4)CC3)c1Cl` [Luzitin-Cl2Et, 5,10,15,20-tetrakis(2,6-dichloro-3-N-ethylsulfamoylphenyl)bacteriochlorin], for which, in data set [1], the “ΦF (fluorescence quantum yield)” value was 0.0081. For the same molecule, the “log KOW” value in data set [2] turned out to be 1.8. Moreover, the “concentration … to kill 90% of cells (LD90)” value in data set [4] and in data set [5] was 10 µM each time.
As usually defined, the IC50 is the concentration that gives 50% inhibition. In the case of `O=S(=O)(O)c1ccc(Cl)c(-c2c3nc(c(-c4cc(S(=O)(=O)O)ccc4Cl)c4ccc([nH]4)c(-c4cc(S(=O)(=O)O)ccc4Cl)c4nc(c(-c5cc(S(=O)(=O)O)ccc5Cl)c5ccc2[nH]5)CC4)CC3)c1` [Luzitin-Cl, 5,10,15,20-tetrakis(2-chloro-5-sulfonylphenyl)bacteriochlorin], the “ΦF (fluorescence quantum yield)” value in data set [1] came out at 0.0403. In addition, the “log KOW” value in data set [2] is −1.70. In data set [3] (PC-3, incubation 72 h in the dark, read-out: IC50 dark toxicity), the half-inhibitory concentration (IC50) was determined as 600 µM.
For the molecule `CNS(=O)(=O)c1ccc(F)c(-c2c3nc(c(-c4cc(S(=O)(=O)NC)ccc4F)c4ccc([nH]4)c(-c4cc(S(=O)(=O)NC)ccc4F)c4nc(c(-c5cc(S(=O)(=O)NC)ccc5F)c5ccc2[nH]5)CC4)CC3)c1` [Luzitin-FMet, 5,10,15,20-tetrakis(2-fluoro-5-N-methylsulfamoylphenyl)bacteriochlorin], the “ΦF (fluorescence quantum yield)” value in data set [1] stood at 0.0589. Further, in data set [2], the “log KOW” value was found to be 2.3. Moreover, the cell kill in data set [4] (1 μM, laser light dose 6 J/cm^2, incubation 18 hours) was found to be 100%. Also, the “concentration … to kill 90% of cells (LD90)” value is 0.5 µM and 1 µM in data set [4]; 0.5 µM in data set [5]. Also, the “depth of diffusion through stratum corneum and epidermis” value in data set [6] was determined as 50 microns. In data set [6], the “time to diffuse through all the epidermis” value was not above 3 h. The “side effects of topical gel formulation” value in data set [6] (in vivo) was “None of the animals, and in particular the animal that remained alive, showed evidence for side effects”.
